system: Hut-78 cells; assay: Inhibition in Hut-78 cells (IL-2 stimulated, HTRF); format: cell-based; settings: Homo sapiens, HuT78; compound 2 hours at 37° C., then IL-2 100 ng/mL 10 min; HTRF; read-out: Hut-78 cells IC50
Procedure: Exemplary compounds were assayed to determine potency in inhibiting Hut-78 cells by determining IC50 values.
Hut-78 cells were cultures in IMDM+20% FBS medium. Cells were maintained in log phase before the assay. Cell pellets were collected and resuspended in serum-free and phenol-free RPMI 1640 medium. 40,000 cells/well (10 μL) were seeded in each well of a 384-well plate and incubated with and without compound for 2 hours at 37° C. and 5% C02. IL-2 was added (2 μL, final concentration 100 ng/mL) and the mixture was incubated for 10 min. Cells were lysed by adding 4 μL labeled antibodies and the mixture was incubated overnight. The plate was read using the HTRF protocol on an Envision plate reader. The data was analyzed using XL-fit software (Supplier: ID business solutions Ltd.; Software version: XL fit 5.0). Inhibition %=(Max−Sample value)/(Max−Min)*100.
In the table, “A” indicates an IC50 of less than 0.5 μM, “B” indicates an IC50 range from 0.5 μM to 1 μM; and “C” indicates an IC50 range from 1 μM to 10 μM. Also, “na” indicates data is not available.

| SMILES | IC50 |
| --- | --- |
| N#Cc1cn(C(=O)NCCC(F)(F)F)c2c1CCN(c1ncnc3[nH]ccc13)C2 [Compound 143] | 1 to 10 µM |
| O=C(NCCC(F)(F)F)c1onc2c1CN(c1ncnc3[nH]ccc13)CC21CC1 [Compound 193] | 0.5 to 1 µM |
| O=C(NC1CC1C(F)(F)F)c1noc2c1CN(c1ncnc3[nH]ccc13)CC2 (stereo not shown) [Compound 182] | < 0.5 µM |

Now from value to molecule:

| IC50 | SMILES |
| --- | --- |
| 1 to 10 µM | CCS(=O)(=O)n1nc(C(=O)NCCC(F)(F)F)c2c1CCN(c1ncnc3[nH]ccc13)C2 [Compound 102] |
| 0.5 to 1 µM | O=C(NCCC(F)(F)F)c1nn(Cc2ccncc2)c2c1CN(c1ncnc3[nH]ccc13)CC2 [Compound 105] |

target: T1, TYK2 (Homo sapiens, UniProt P29597); assay: Inhibition of TYK2 kinase, LANCE Ultra TR-FRET assay; format: biochemical; settings: 4 nM TYK2, 2x ATP 30 μM, 15 min pre-incubation, 90 min reaction, 23° C., read-out: tyk IC50
T1 construct: purchased Invitrogen PR8440C
Procedure: (§1) Exemplary compounds were assayed to determine potency in inhibiting activity of JAK1-3 and TYK2 kinases by determining IC50 values.
(§2) The sources of test materials and equipment are as follows: JAK1 (Invitrogen, Cat. No PV4775), JAK2 (Invitrogen, Cat. No PV4210), JAK3 (Invitrogen, Cat. No PV4080), TYK2 (Invitrogen, Cat. No PR8440C), ATP (Sigma, Cat. No. A7699-1G), DMSO (Sigma, Cat. No. D2650), DTT (Sigma, Cat. No. 43815), 384 wells_compound plate (Greiner, Cat. No. 781280), 384 wells_assay plate (Perkin Elmer, Cat. No. 6007299), LANCE Ultra ULight™-JAK-1 peptide (Perkin Elmer, Cat. No. TRF0121), LANCET™ Eu-W1024 Anti-phosphotyrosine (PT66) (Perkin Elmer, Cat. No. AD0069), LANCET™ Detection Buffer(Perkin Elmer, Cat. No. CR97-100).
(§3) The concentrations of test compounds varied from 100 μM to 1.7 nM with 3-fold dilution, 11 points, in duplicates while the concentrations of the reference compound, Tofacitinib, varied from 1 μM to 0.017 nM with 3-fold dilution, 11 points, in duplicates.
(§4) The assay buffer contained 50 mM HEPES (pH 7.5), 0.01% Brij-35, 10 mM MgCl2, 1 mM EDTA, 2 mM DTT. Incubations were carried out at 23° C.
(§5) Prior to the assay, enzyme, peptide substrate and serially diluted test compounds were pre-incubated together in assay buffer (5 μL) for 15 minutes (peptide substrate concentration: 50 nM; JAK enzyme concentrations: 2 nM JAK1; […]; […] and 4 nM TYK2). And the assay was initiated by the addition of 5 μL assay buffer containing 2× final ATP concentration (these are the 2×ATP concentrations: 76 μM JAK1; 24 μM JAK2; 8 μM JAK3 and 30 μM TYK2). Following the 90-minute incubation, antibody conjugated with Eu is dissolved in detection buffer to add into wells and then incubated for 60 minutes. The 10 μL detection buffer contains EDTA to stop the enzymatic reaction. The plate is analyzed by Perkin Elmer Envision on TR-FRET mode. The high ratio of 665/615 represents no inhibition of kinase reaction while the low ratio of 665/615 represents complete inhibition of kinase reaction.
(§6) Curves are fit by XLFIT5 as inhibition rate % vs. log [compound concentration] using 4 parameters logistic model 205.
(§7) In the table, “A” indicates an IC50 of less than 100 nM, “B” indicates an IC50 range from 100 nM to 500 nM; “C” indicates an IC50 range from 500 nM to 2 μM; and “D” indicates an IC50 greater than 2 μM. Also, “na” indicates data is not available.

T1 sequence (P29597 whole entry): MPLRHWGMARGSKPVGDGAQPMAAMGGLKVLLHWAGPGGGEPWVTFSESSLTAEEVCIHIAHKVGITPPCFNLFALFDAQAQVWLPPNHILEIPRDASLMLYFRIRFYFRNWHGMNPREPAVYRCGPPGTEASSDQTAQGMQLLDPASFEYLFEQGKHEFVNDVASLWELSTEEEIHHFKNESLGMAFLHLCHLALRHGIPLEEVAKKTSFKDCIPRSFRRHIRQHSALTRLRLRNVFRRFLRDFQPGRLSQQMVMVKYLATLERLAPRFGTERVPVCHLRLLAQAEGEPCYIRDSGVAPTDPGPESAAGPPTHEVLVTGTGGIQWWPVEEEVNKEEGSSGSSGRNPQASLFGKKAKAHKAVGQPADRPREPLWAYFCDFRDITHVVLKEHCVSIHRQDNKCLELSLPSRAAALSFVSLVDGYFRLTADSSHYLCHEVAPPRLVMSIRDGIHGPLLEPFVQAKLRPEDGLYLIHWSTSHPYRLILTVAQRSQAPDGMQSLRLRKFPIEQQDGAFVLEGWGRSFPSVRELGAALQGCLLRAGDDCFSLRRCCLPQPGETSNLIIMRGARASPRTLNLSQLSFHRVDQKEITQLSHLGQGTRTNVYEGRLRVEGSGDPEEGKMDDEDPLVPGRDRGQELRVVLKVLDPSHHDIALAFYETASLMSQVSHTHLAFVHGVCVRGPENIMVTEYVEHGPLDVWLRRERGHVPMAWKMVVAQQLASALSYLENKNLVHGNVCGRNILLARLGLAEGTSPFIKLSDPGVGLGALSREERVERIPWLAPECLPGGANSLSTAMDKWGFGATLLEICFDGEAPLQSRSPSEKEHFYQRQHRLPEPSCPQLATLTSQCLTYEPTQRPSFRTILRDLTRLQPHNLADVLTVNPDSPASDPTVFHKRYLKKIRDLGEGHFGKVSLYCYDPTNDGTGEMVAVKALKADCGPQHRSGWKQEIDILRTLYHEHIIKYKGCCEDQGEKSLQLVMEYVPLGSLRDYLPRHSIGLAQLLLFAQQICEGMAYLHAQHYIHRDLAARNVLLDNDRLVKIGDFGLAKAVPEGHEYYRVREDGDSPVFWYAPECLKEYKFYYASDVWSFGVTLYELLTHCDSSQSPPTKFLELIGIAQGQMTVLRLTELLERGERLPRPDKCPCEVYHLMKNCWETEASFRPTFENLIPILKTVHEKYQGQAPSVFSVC

| SMILES | IC50 |
| --- | --- |
| N#Cc1cn(C(=O)NCCC(F)(F)F)c2c1CCN(c1ncnc3[nH]ccc13)C2 [Compound 143] | 0.5 to 2 µM |
| O=C(NCCC(F)(F)F)c1onc2c1CN(c1ncnc3[nH]ccc13)CC21CC1 [Compound 193] | 0.5 to 2 µM |
| O=C(NC1CC1C(F)(F)F)c1noc2c1CN(c1ncnc3[nH]ccc13)CC2 (stereo not shown) [Compound 182] | 0.5 to 2 µM |

Now from value to molecule:

| IC50 | SMILES |
| --- | --- |
| > 2 µM | CCS(=O)(=O)n1nc(C(=O)NCCC(F)(F)F)c2c1CCN(c1ncnc3[nH]ccc13)C2 [Compound 102] |
| > 2 µM | O=C(NCCC(F)(F)F)c1nn(Cc2ccncc2)c2c1CN(c1ncnc3[nH]ccc13)CC2 [Compound 105] |

target: T2, JAK3 (Homo sapiens, UniProt P52333); assay: Inhibition of JAK3 kinase, LANCE Ultra TR-FRET assay; format: biochemical; settings: 2x ATP 8 μM, 15 min pre-incubation, 90 min reaction, 23° C.
T2 construct: purchased Invitrogen PV4080
T2 sequence (P52333 1-1124): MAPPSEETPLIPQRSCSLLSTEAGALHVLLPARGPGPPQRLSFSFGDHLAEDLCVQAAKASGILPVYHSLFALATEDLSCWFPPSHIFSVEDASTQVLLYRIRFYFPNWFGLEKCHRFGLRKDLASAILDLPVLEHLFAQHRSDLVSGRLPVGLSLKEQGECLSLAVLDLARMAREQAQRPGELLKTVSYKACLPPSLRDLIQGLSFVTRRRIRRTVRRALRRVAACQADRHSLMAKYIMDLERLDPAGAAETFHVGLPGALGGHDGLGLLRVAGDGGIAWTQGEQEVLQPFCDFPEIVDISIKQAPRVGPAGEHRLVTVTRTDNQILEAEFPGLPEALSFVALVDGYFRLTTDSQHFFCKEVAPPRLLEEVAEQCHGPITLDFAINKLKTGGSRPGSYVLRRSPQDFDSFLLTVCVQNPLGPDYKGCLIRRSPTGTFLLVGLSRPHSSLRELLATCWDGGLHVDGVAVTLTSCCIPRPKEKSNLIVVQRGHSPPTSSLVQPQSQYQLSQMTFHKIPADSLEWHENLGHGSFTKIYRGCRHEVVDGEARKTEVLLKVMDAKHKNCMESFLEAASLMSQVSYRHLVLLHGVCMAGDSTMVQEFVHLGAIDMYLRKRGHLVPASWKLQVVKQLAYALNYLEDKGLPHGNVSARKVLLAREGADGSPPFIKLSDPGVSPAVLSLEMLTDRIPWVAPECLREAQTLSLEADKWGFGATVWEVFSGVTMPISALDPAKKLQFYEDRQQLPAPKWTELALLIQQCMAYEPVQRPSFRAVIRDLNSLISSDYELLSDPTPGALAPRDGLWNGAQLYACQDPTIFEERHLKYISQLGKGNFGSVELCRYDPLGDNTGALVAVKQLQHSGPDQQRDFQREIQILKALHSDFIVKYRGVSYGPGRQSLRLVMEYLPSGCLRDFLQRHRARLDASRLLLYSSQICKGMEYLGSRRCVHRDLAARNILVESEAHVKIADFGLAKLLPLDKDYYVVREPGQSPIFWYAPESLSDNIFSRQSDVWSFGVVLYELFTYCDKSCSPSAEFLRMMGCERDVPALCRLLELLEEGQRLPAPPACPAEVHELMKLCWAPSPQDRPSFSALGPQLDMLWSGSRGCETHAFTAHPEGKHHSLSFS
Procedure: as §1, §2, §3, §4, §5, §6, §7

| SMILES | IC50 |
| --- | --- |
| N#Cc1cn(C(=O)NCCC(F)(F)F)c2c1CCN(c1ncnc3[nH]ccc13)C2 [Compound 143] | < 0.1 µM |
| O=C(NCCC(F)(F)F)c1onc2c1CN(c1ncnc3[nH]ccc13)CC21CC1 [Compound 193] | < 0.1 µM |
| O=C(NC1CC1C(F)(F)F)c1noc2c1CN(c1ncnc3[nH]ccc13)CC2 (stereo not shown) [Compound 182] | < 0.1 µM |

Continued, values first:

| IC50 | SMILES |
| --- | --- |
| < 0.1 µM | CCS(=O)(=O)n1nc(C(=O)NCCC(F)(F)F)c2c1CCN(c1ncnc3[nH]ccc13)C2 [Compound 102] |
| < 0.1 µM | O=C(NCCC(F)(F)F)c1nn(Cc2ccncc2)c2c1CN(c1ncnc3[nH]ccc13)CC2 [Compound 105] |

target: T3, JAK1 (Homo sapiens, UniProt P23458); assay: Inhibition of JAK1 kinase, LANCE Ultra TR-FRET assay; format: biochemical; settings: 2 nM JAK1, 2x ATP 76 μM, 15 min pre-incubation, 90 min reaction, 23° C.
T3 construct: purchased Invitrogen PV4775
Procedure: as §1, §2, §3, §4, §5, §6, §7

T3 sequence (P23458 whole entry): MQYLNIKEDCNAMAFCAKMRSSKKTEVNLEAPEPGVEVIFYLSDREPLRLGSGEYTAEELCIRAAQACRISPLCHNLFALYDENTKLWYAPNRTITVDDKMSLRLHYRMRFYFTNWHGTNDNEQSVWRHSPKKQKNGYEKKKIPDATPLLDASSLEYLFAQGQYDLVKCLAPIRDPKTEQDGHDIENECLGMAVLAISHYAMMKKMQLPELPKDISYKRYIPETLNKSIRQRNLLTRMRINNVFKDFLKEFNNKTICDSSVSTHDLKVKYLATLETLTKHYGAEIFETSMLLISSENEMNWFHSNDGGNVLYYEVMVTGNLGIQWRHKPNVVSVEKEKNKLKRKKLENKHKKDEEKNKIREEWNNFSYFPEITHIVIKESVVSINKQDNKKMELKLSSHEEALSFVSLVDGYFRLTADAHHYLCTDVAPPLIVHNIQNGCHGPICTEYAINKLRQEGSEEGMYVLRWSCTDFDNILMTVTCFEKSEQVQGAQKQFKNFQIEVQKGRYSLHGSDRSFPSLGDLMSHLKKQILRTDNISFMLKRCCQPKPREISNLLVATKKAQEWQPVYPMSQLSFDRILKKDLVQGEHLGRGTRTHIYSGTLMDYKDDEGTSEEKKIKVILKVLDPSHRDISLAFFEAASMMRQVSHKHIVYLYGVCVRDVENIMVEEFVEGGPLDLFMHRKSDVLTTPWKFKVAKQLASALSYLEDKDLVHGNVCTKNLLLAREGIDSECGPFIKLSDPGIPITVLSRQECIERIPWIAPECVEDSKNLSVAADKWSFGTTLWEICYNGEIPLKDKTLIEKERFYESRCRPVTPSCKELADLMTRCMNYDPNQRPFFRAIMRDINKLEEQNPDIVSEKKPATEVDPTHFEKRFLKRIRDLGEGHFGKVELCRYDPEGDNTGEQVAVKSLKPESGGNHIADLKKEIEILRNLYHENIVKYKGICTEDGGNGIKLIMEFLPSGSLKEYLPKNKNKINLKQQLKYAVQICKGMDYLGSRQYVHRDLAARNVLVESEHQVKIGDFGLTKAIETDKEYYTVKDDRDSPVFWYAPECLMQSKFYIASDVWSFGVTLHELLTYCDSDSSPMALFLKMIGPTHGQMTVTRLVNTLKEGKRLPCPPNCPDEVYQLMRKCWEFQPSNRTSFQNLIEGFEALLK

| SMILES | IC50 |
| --- | --- |
| N#Cc1cn(C(=O)NCCC(F)(F)F)c2c1CCN(c1ncnc3[nH]ccc13)C2 [Compound 143] | 0.1 to 0.5 µM |
| O=C(NCCC(F)(F)F)c1onc2c1CN(c1ncnc3[nH]ccc13)CC21CC1 [Compound 193] | 0.1 to 0.5 µM |
| O=C(NC1CC1C(F)(F)F)c1noc2c1CN(c1ncnc3[nH]ccc13)CC2 (stereo not shown) [Compound 182] | < 0.1 µM |

Second part, the molecule after the results:

| IC50 | SMILES |
| --- | --- |
| 0.5 to 2 µM | CCS(=O)(=O)n1nc(C(=O)NCCC(F)(F)F)c2c1CCN(c1ncnc3[nH]ccc13)C2 [Compound 102] |
| 0.1 to 0.5 µM | O=C(NCCC(F)(F)F)c1nn(Cc2ccncc2)c2c1CN(c1ncnc3[nH]ccc13)CC2 [Compound 105] |

target: T4, JAK2 (Homo sapiens, UniProt O60674); assay: Inhibition of JAK2 kinase, LANCE Ultra TR-FRET assay; format: biochemical; settings: 2x ATP 24 μM, 15 min pre-incubation, 90 min reaction, 23° C.
T4 construct: purchased Invitrogen PV4210
Procedure: as §1, §2, §3, §4, §5, §6, §7

T4 sequence (O60674 whole entry): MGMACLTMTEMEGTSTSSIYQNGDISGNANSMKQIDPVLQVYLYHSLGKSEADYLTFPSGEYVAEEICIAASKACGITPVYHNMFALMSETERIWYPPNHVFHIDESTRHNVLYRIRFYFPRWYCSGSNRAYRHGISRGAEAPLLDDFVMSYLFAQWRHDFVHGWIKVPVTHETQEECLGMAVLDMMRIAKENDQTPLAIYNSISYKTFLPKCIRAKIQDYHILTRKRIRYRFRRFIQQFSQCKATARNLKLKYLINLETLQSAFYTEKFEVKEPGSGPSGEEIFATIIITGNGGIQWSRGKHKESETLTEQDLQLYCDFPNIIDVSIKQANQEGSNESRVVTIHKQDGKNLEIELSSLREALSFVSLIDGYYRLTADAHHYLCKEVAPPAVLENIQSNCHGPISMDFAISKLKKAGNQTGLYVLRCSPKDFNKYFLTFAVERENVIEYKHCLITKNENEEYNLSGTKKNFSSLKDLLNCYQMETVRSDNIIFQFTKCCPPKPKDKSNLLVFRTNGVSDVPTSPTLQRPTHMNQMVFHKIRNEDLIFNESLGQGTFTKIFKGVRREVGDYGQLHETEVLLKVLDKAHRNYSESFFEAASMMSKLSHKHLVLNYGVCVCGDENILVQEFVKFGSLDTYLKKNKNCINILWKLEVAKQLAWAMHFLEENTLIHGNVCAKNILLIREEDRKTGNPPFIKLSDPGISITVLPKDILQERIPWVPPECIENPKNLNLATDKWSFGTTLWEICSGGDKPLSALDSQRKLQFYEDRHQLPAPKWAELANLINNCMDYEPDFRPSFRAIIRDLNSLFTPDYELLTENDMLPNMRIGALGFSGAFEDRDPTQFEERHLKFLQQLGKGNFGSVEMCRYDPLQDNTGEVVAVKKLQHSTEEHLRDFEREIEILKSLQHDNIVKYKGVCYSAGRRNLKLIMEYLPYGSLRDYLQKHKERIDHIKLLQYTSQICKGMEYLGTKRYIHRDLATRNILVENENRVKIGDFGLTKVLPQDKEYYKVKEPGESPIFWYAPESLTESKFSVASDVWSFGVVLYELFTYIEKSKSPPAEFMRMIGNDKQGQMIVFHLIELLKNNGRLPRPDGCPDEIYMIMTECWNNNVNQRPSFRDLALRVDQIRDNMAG

| SMILES | IC50 |
| --- | --- |
| N#Cc1cn(C(=O)NCCC(F)(F)F)c2c1CCN(c1ncnc3[nH]ccc13)C2 [Compound 143] | 0.1 to 0.5 µM |
| O=C(NCCC(F)(F)F)c1onc2c1CN(c1ncnc3[nH]ccc13)CC21CC1 [Compound 193] | 0.1 to 0.5 µM |
| O=C(NC1CC1C(F)(F)F)c1noc2c1CN(c1ncnc3[nH]ccc13)CC2 (stereo not shown) [Compound 182] | 0.1 to 0.5 µM |

Other lines, results leading:

| IC50 | SMILES |
| --- | --- |
| 0.1 to 0.5 µM | CCS(=O)(=O)n1nc(C(=O)NCCC(F)(F)F)c2c1CCN(c1ncnc3[nH]ccc13)C2 [Compound 102] |
| 0.1 to 0.5 µM | O=C(NCCC(F)(F)F)c1nn(Cc2ccncc2)c2c1CN(c1ncnc3[nH]ccc13)CC2 [Compound 105] |

Source: patent US12286443B2, “Bycyclic JAK inhibitors and uses thereof” (Insilico Medicine IP Limited, priority 2019, dated 2025)
